Assay results from publication PMC11394742, “Discovery of Indole–Thiourea Derivatives as Tyrosinase Inhibitors: Synthesis, Biological Evaluation, Kinetic Studies, and In Silico Analysis” (International Journal of Molecular Sciences, 2024).
“And” between values parts separate entries of the source, which are not always exact repeats. Equal values may be shown once.

Legend:
tyrosinase = conditions: natural product; cited from earlier work
[1] = Stability in aqueous solution (HPLC main peak area); type: physicochemical; conditions: room temperature, 275 nm
Protocol: Table S1. Gradient elution of the mobile phase for the synthetic compounds using HPLC.
The mobile phase consisted of Solution A (0.1% acetic acid in water) and Solvent B
(acetonitrile), with gradient elution employed throughout the analysis. The flow rate was
Time Solution (A) % Solution (B) %
Table S2. The stability of the synthesized compounds in aqueous solution.
Each compound (2.0 mg) was dissolved in an appropriate volume of water to achieve
an approximate concentration of 1-2 mg/mL. The solutions were then subjected to
ultrasonic treatment, filtered, and analyzed. During stability testing, varying degrees of
To facilitate analysis, these
samples were reconstituted with additional water or treated ultrasonically, filtered, and
absorption at approximately 275 nm, which was selected for detection. The integration
method employed was based on the minimum area approach to accurately determine the
retention time (min) and main peak area (%) of all synthesized compounds. The prepared
samples were stored at room temperature, and their stability in aqueous solution was
evaluated at 0, 2, 4 days, and 2 months using the aforementioned analytical method.
Compounds 0 day 2 day 4 days 2 months RT Area RT Area RT Area RT Area

mushroom tyrosinase = target: T1, mushroom tyrosinase (Agaricus bisporus, UniProt C7FF04); assay: Tyrosinase inhibition assay; type: biochemical; conditions: L-tyrosine substrate, 37 °C 10 min, absorbance 490 nm; mean ± SEM
T1 construct: purchased Sigma Chemicals (St. Louis, MO, USA)
Protocol: In the enzymatic assay, a reaction mixture was prepared containing 0.1 M potassium phosphate buffer (pH 6.8), 2 mM L-tyrosine, and 2500 units of tyrosinase. Samples at various concentrations were dispensed as 20 µL aliquots into a 96-well plate. Each well received 130 µL of substrate solution (buffer and L-tyrosine), followed by 5 µL of tyrosinase and 45 µL of buffer solution.

mTYR = target: T2, mTYR (Agaricus bisporus, UniProt C7FF04); assay: Kinetic mechanism analysis (Lineweaver–Burk plots); type: biochemical, mushroom
T2 construct: purchased Sigma Chemicals (St. Louis, MO, USA)
Protocol: Due to the potent inhibition of mushroom tyrosinase by compound 4b, kinetic studies were conducted using Lineweaver–Burk double reciprocal plots to elucidate its inhibitory mechanisms. […] concentrations (0 μM, 3 μM, 6 μM, and 12 μM) of the indole derivative 4b in the presence of varying L-tyrosine concentrations (0.1, 0.2, 0.4, 0.6, 0.8, 1 mM) were employed for the kinetic analyses. The Lineweaver–Burk plots generated four distinct lines with different slopes corresponding to each concentration of the derivative. […] Specifically, the KM values were 1.515, 7.846, 15.740, and 23.586 mM at 0, 3, 6, and 12 μM of 4b, respectively.
The kinetic experiment was intended to elucidate the inhibitory behavior of compound 4b against tyrosinase. Four different doses of 4b (0, 3, 6, and 12 µM) were investigated to characterize its inhibition pattern with respect to tyrosinase activity. Various concentrations of L-tyrosine substrate ranging from 0.1 to 1 mM were employed across all experiments. The initial incubation time and reading period mirrored those outlined in the anti-tyrosinase inhibition method. The maximum initial velocity (V₀) was determined from the linear phase of absorbance measurements taken over 5 min following the addition of the enzyme solution. The inhibition mode was further delineated using a Lineweaver–Burk plot, where the reciprocal of velocities (1/V) was plotted against the reciprocal of substrate concentrations utilized.

[2] = DPPH free radical-scavenging assay; conditions: 0.2 mM DPPH in EtOH, 15 min, room temperature, 515 nm; read-out: SC50 ± SD (DPPH radical scavenging)
Protocol: The DPPH radical-scavenging activity was evaluated using Blois’ method. A 0.2 mM solution of DPPH in ethanol (EtOH) was prepared as the working reagent. Each sample (20 μL) was introduced into a 96-well plate, followed by the addition of 180 μL of the DPPH solution. […] The SC50 value, representing the concentration required to scavenge 50% of the DPPH radicals, was determined for each sample. Each measurement was performed in triplicate, and the mean value was reported. Ascorbic acid served as the positive control throughout the experiment.

B16F10 melanoma cells = conditions: cited from earlier work

T1 sequence (C7FF04 1-392): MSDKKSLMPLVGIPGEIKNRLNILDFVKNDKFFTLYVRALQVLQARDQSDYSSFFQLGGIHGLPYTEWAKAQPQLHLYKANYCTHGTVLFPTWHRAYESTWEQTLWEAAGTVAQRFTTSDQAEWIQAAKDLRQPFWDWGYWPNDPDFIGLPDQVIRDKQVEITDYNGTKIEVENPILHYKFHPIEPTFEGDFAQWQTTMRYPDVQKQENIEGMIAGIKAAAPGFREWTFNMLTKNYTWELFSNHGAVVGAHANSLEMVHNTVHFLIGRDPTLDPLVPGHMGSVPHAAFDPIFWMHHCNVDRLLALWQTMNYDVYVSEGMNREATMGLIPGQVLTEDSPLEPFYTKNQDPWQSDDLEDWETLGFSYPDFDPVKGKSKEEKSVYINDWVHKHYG
T2 sequence (C7FF04 1-392): as above

Row | Compound | Main peak area (HPLC), stability in aqueous solution ([1]; 0 day) [%] | Main peak area (HPLC), stability in aqueous solution ([1]; 2 months) | Main peak area (HPLC), stability in aqueous solution ([1]; 2 day) [%] | Main peak area (HPLC), stability in aqueous solution ([1]; 4 days) [%] | IC50 (mushroom tyrosinase) [µM] | Inhibition mode (mTYR; Lineweaver–Burk plots, versus L-tyrosine) | Ki (mTYR; at 6 μM of 4b) [nM] | Ki (mTYR; at 12 μM of 4b) [nM] | Vmax (mTYR; consistent across 0-12 μM 4b, L-tyrosine 0.1-1 mM) [mM/min] | EC50 [2] [µM] | melting point [°C] | Tyrosinase inhibition activity (tyrosinase) | Effect on B16F10 melanoma cells (B16F10 melanoma cells)
1 | O=Cc1c[nH]c2ccccc12 [indole-3-carbaldehyde] |  |  |  |  |  |  |  |  |  |  |  | significant tyrosinase inhibition activity | 
2 | O=C1O[C@H]([C@@H](O)CO)C(O)=C1O [Ascorbic acid, reference compound] |  |  |  |  |  |  |  |  |  | 37.9 ± 0.3 |  |  | 
3 | O=C(O)Cc1c[nH]c2ccccc12 [indole-3-acetic acid] |  |  |  |  |  |  |  |  |  |  |  |  | inhibitory effects
4 | OCCc1c[nH]c2ccccc12 [indole-3-ethanol] |  |  |  |  |  |  |  |  |  |  |  | significant tyrosinase inhibition activity | 
5 | O=C(O)c1c[nH]c2ccccc12 [indole-3-carboxylic acid] |  |  |  |  |  |  |  |  |  |  |  |  | inhibitory effects

Continued, in another order:

Row | Main peak area (HPLC), stability in aqueous solution ([1]; 0 day) [%] | Main peak area (HPLC), stability in aqueous solution ([1]; 2 months) | Main peak area (HPLC), stability in aqueous solution ([1]; 2 day) [%] | Main peak area (HPLC), stability in aqueous solution ([1]; 4 days) [%] | IC50 (mushroom tyrosinase) [µM] | Inhibition mode (mTYR; Lineweaver–Burk plots, versus L-tyrosine) | Ki (mTYR; at 6 μM of 4b) [nM] | Ki (mTYR; at 12 μM of 4b) [nM] | Vmax (mTYR; consistent across 0-12 μM 4b, L-tyrosine 0.1-1 mM) [mM/min] | EC50 [2] [µM] | melting point [°C] | Compound | Tyrosinase inhibition activity (tyrosinase) | Effect on B16F10 melanoma cells (B16F10 melanoma cells)
6 | 97.21 | 91.69% | 97.10 | 97.07 | 5.9 ± 2.47 | competitive | 56.8 | 20.6 | 0.0135 | 544.3 ± 1.5 |  | NC(=S)N/N=C/c1c[nH]c2ccc(F)cc12 [Compound 4b, (E)-2-((5-fluoro-1H-indol-3-yl)methylene)hydrazine-1-carbothioamide] |  | 
7 | 97.79 | 91.28% | 97.41 | 96.80 | 14.9 ± 2.86 |  |  |  |  | 769 ± 2.6 | 215 to 217 | NC(=S)N/N=C/c1c[nH]c2ccc(Br)cc12 [Compound 4d, (E)-2-((5-bromo-1H-indol-3-yl)methylene)hydrazine-1-carbothioamide] |  | 
8 | 96.00 | 94.13% | 95.85 | 95.32 | 43.3 ± 3.46 |  |  |  |  | 24.6 ± 3.7 | 261 to 263 | NC(=S)N/N=C/c1c[nH]c2ccc(O)cc12 [Compound 4k, (E)-2-((5-hydroxy-1H-indol-3-yl)methylene)hydrazine-1-carbothioamide] |  | 
9 | 97.80 | 92.18% | 96.99 | 96.45 | 127 ± 2.85 |  |  |  |  | > 1000 | 188 to 190 | CCn1cc(/C=N/NC(N)=S)c2ccccc21 [Compound 4f, (E)-2-((1-ethyl-1H-indol-3-yl)methylene)hydrazine-1-carbothioamide] |  | 
10 | 90.17 | 65% and 65.06% | 88.52 | 88.22 | 46.3 ± 3.11 |  |  |  |  | > 1000 | 220 to 222 | Cn1cc(/C=N/NC(N)=S)c2cc(Br)ccc21 [Compound 4i, (E)-2-((5-bromo-1-methyl-1H-indol-3-yl)methylene)hydrazine-1-carbothioamide] |  | 
11 | 96.18 | 90.15% | 95.87 | 95.83 | 163 ± 3.81 |  |  |  |  | 340.2 ± 3.1 | 203 to 205 | COc1ccc2c(c1)c(/C=N/NC(N)=S)cn2C [Compound 4h, (E)-2-((5-methoxy-1-methyl-1H-indol-3-yl)methylene)hydrazine-1-carbothioamide] |  | 
12 | 97.61 | 91.27% | 95.84 | 95.76 | 7.9 ± 4.07 |  |  |  |  |  |  | NC(=S)N/N=C/c1c[nH]c2ccccc12 [Compound 4a, (E)-2-((1H-indol-3-yl)methylene)hydrazine-1-carbothioamide] |  | 
13 | 97.37 | 90.86% | 97.13 | 96.75 | 103 ± 2.72 |  |  |  |  | 275.7 ± 2.7 | 247 to 249 | COC(=O)c1ccc2[nH]cc(/C=N/NC(N)=S)c2c1 [Compound 4j, Methyl(E)-3-((2-carbamothioylhydrazineylidene)methyl)-1H-indole-5-carboxylate] |  | 
14 | 97.47 | 95.20% | 94.12 | 94.58 | 155.5 ± 1.07 |  |  |  |  | 493.5 ± 0.7 | 199 to 201 | Cn1cc(/C=N/NC(N)=S)c2ccccc21 [Compound 4g, (E)-2-((1-methyl-1H-indol-3-yl)methylene)hydrazine-1-carbothioamide] |  | 
15 | 96.24 | 91.89% | 96.04 | 95.74 | 13.2 ± 1.68 |  |  |  |  | 659.2 ± 0.5 | 212 to 214 | NC(=S)N/N=C/c1c[nH]c2ccc(Cl)cc12 [Compound 4c, (E)-2-((5-chloro-1H-indol-3-yl)methylene)hydrazine-1-carbothioamide] |  | 
16 | 98.00 | 94.97% | 97.87 | 96.87 | 30.1 ± 1.77 |  |  |  |  | 603.4 ± 1 |  | COc1ccc2[nH]cc(/C=N/NC(N)=S)c2c1 [Compound 4e, (E)-2-((5-methoxy-1H-indol-3-yl)methylene)hydrazine-1-carbothioamide] |  | 
